Laboratory results as given in patent publication US20150148551A1, “GENISTEIN FOR REDUCING LEVELS OF STORAGE COMPOUNDS IN THE TREATMENT AND/OR PREVENTION OF LYSOSOMAL STORAGE DISEASES (LSDS)” (3G THERAPEUTICS, INC., priority 2012, published 2015).

Tests used:
Format in all cases: cell-based, human
[1] = test system: CD164; experiment: DNA microarray, CD164 expression in fibroblasts exposed to genistein; conditions: 100 μM
Description: (§1) The experiments were conducted to characterise the transcriptomic profile of human fibroblast cells exposed to genistein, and in particular to determine the expression of genes encoding lysosomal enzymes involved in metabolism (i.e. synthesis and degradation) of organic substances. The absence or deficiency of these enzymes' activity is responsible for occurrence of various lysosomal storage diseases (LSD) (including MPS). The tested hypothesis assumed that genistein influences the expression of many genes, among which there are genes coding for enzymes required in metabolism of compounds, which are pathologically stored in LSD. The results provide important information regarding genistein action on the molecular level within the range of gene expression modulation by this substance. The experiment was conducted in biological quintuplicates. Human dermal fibroblasts (HDFa) were exposed in vitro for 1, 24 or 48 hours to: 30, 60 or 100 μM of genistein; 0.05% DMSO (K1); or were untreated (control cells) (K2), and total RNA was isolated and analysed.
(§2) Fibroblast cells were grown in Dulbecco (DMEM) medium supplemented with 10% fetal bovine serum (FBS) with the addition of 1% antibiotics and anti-fungal agents at 37° C. in humidified atmosphere of 5% CO2, until the required confluency was obtained.
(§3) To determine the effect of tested compound on the transcriptom of the fibroblast cells, the growth medium was replaced with fresh medium, either non-supplemented (0.05% DMSO), or containing genistein (30, 60 or 100 μM, in 0.05% DMSO). The exposure was done for 1, 24 or 48 hours.
(§4) Total RNA was isolated from fibroblasts using High Pure RNA Isolation Kit according to the protocol and then it was quantitatively evaluated using Quant-It™ RiboGreen® Assay Kit.
(§5) Biotinylated cRNA was prepared using Ambion Total PrepAmp Kit for Illumina arrays.
(§6) Standard hybridization and quantitative image analysis procedures—Illumina hybridization protocol and Illumina scanning protocol, were used.
(§7) Processing of the results was done during data definition, including: background correction (using background subtraction method), normalization (using quantile normalization algorithm with Illumina GenomeStudio software package: gene expression module version 1.9.0) and summarization (using method, which sums the values of signal intensities from a set of probes).

[2] = test system: CTSA; experiment: DNA microarray, CTSA expression in fibroblasts exposed to genistein; conditions: for CTSA fold change Average: 48 h vs DMSO
Description: as §1, §2, §3, §4, §5, §6, §7

[3] = test system: ACP5; experiment: DNA microarray, ACP5 expression in fibroblasts exposed to genistein; conditions: for ACP5 fold change Average: 48 h vs DMSO
Description: as §1, §2, §3, §4, §5, §6, §7

[4] = test system: CTNS; experiment: DNA microarray, CTNS expression in fibroblasts exposed to genistein; conditions: for CTNS fold change Average: 48 h vs DMSO
Description: as §1, §2, §3, §4, §5, §6, §7

[5] = test system: FUCA1; experiment: DNA microarray, FUCA1 expression in fibroblasts exposed to genistein; conditions: for FUCA1 fold change Average: 48 h vs DMSO
Description: as §1, §2, §3, §4, §5, §6, §7

[6] = test system: CTSO; experiment: DNA microarray, CTSO expression in fibroblasts exposed to genistein; conditions: for CTSO fold change Average: 48 h vs DMSO
Description: as §1, §2, §3, §4, §5, §6, §7

[7] = test system: TBP; experiment: DNA microarray, TBP reference gene expression in fibroblasts exposed to genistein
Description: as §1, §2, §3, §4, §5, §6, §7

[8] = test system: NAGLU; experiment: DNA microarray, NAGLU expression in fibroblasts exposed to genistein; conditions: for NAGLU fold change Average: 48 h vs DMSO
Description: as §1, §2, §3, §4, §5, §6, §7

O=c1c(-c2ccc(O)cc2)coc2cc(O)cc(O)c12 [genistein, 4′,5,7-trihydroxy-3-phenylchromen-4-one]
CD164 fold change Average 1h100/1hK1 ([1]; 1 h vs 0.05% DMSO): 1.002 fold change
CD164 fold change Average ([1]; 48 h vs DMSO): 1.282 fold change
CTSA fold change Average 1h30/1hK1 ([2]; 30 μM, 1 h vs 0.05% DMSO): 1.0199 fold change
CTSA fold change Average ([2]; 30 μM): 1.3019 fold change
CTSA fold change Average 1h60/1hK1 ([2]; 60 μM, 1 h vs 0.05% DMSO): 0.9816 fold change
CTSA fold change Average ([2]; 60 μM): 1.637 fold change
CTSA fold change Average 1h100/1hK1 ([2]; 100 μM, 1 h vs 0.05% DMSO): 0.9643 fold change
CTSA fold change Average ([2]; 100 μM): 1.571 fold change
ACP5 fold change Average 1h30/1hK1 ([3]; 30 μM, 1 h vs 0.05% DMSO): 0.9865 fold change
ACP5 fold change Average ([3]; 30 μM): 1.6259 fold change
ACP5 fold change Average 1h60/1hK1 ([3]; 60 μM, 1 h vs 0.05% DMSO): 1.066 fold change
ACP5 fold change Average ([3]; 60 μM): 1.7507 fold change
ACP5 fold change Average 1h100/1hK1 ([3]; 100 μM, 1 h vs 0.05% DMSO): 1.141 fold change
ACP5 fold change Average ([3]; 100 μM): 1.763 fold change
CTNS fold change Average 1h30/1hK1 ([4]; 30 μM, 1 h vs 0.05% DMSO): 1.0024 fold change
CTNS fold change Average ([4]; 30 μM): 1.5216 fold change
CTNS fold change Average 1h60/1hK1 ([4]; 60 μM, 1 h vs 0.05% DMSO): 0.7997 fold change
CTNS fold change Average ([4]; 60 μM): 1.577 fold change
CTNS fold change Average 1h100/1hK1 ([4]; 100 μM, 1 h vs 0.05% DMSO): 0.7964 fold change
CTNS fold change Average ([4]; 100 μM): 1.64 fold change
FUCA1 fold change Average 1h30/1hK1 ([5]; 30 μM, 1 h vs 0.05% DMSO): 0.9984 fold change
FUCA1 fold change Average ([5]; 30 μM): 1.3114 fold change
FUCA1 fold change Average 1h60/1hK1 ([5]; 60 μM, 1 h vs 0.05% DMSO): 1.022 fold change
FUCA1 fold change Average ([5]; 60 μM): 1.558 fold change
FUCA1 fold change Average 1h100/1hK1 ([5]; 100 μM, 1 h vs 0.05% DMSO): 0.9945 fold change
FUCA1 fold change Average ([5]; 100 μM): 1.634 fold change
CTSO fold change Average 1h30/1hK1 ([6]; 30 μM, 1 h vs 0.05% DMSO): 0.9973 fold change
CTSO fold change Average ([6]; 30 μM): 1.2507 fold change
CTSO fold change Average 1h60/1hK1 ([6]; 60 μM, 1 h vs 0.05% DMSO): 1 fold change
CTSO fold change Average ([6]; 60 μM): 1.276 fold change
CTSO fold change Average 1h100/1hK1 ([6]; 100 μM, 1 h vs 0.05% DMSO): 1.07 fold change
CTSO fold change Average ([6]; 100 μM): 1.471 fold change
TBP fold change Average 1h30/1hK1 ([7]; 30 μM, 1 h vs 0.05% DMSO): 0.974 fold change
TBP fold change Average 24h30/24hK1 ([7]; 30 μM, 24 h vs 0.05% DMSO): 0.8816 fold change
TBP fold change Average 48h30/48hK1 ([7]; 30 μM, 48 h vs 0.05% DMSO): 0.9265 fold change
TBP fold change Average 1h60/1hK1 ([7]; 60 μM, 1 h vs 0.05% DMSO): 0.9183 fold change
TBP fold change Average 24h60/24hK1 ([7]; 60 μM, 24 h vs 0.05% DMSO): 0.7892 fold change
TBP fold change Average 48h60/48hK1 ([7]; 60 μM, 48 h vs 0.05% DMSO): 0.9926 fold change
TBP fold change Average 1h100/1hK1 ([7]; 100 μM, 1 h vs 0.05% DMSO): 0.9531 fold change
TBP fold change Average 24h100/24hK1 ([7]; 100 μM, 24 h vs 0.05% DMSO): 0.8303 fold change
TBP fold change Average 48h100/48hK1 ([7]; 100 μM, 48 h vs 0.05% DMSO): 0.8862 fold change
NAGLU fold change Average 1h30/1hK1 ([8]; 30 μM, 1 h vs 0.05% DMSO): 1.055 fold change
NAGLU fold change Average ([8]; 30 μM): 1.1022 fold change
NAGLU fold change Average 1h60/1hK1 ([8]; 60 μM, 1 h vs 0.05% DMSO): 1.061 fold change
NAGLU fold change Average ([8]; 60 μM): 1.231 fold change
NAGLU fold change Average 1h100/1hK1 ([8]; 100 μM, 1 h vs 0.05% DMSO): 1.037 fold change
NAGLU fold change Average ([8]; 100 μM): 1.303 fold change
